Data as given in PubChem BioAssay (NCI).
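1) Cells in 96-well plates. 2) Compound, 48 h, 5 concentrations. 3) Linear interpolation between surrounding doses. 4) Unreached endpoint = highest concentration. The concentration for 50% growth inhibition is given as GI50. At the TGI there is no net growth.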

What was measured:
Experiment in all cases: DTP human tumour cell line panel, 48 h
A498 renal = tested on: A498 renal
ACHN renal = tested on: ACHN renal
DU-145 prostate = tested on: DU-145 prostate
LOX IMVI melanoma = tested on: LOX IMVI melanoma
NCI-H522 lung = tested on: NCI-H522 lung
OVCAR-4 ovarian = tested on: OVCAR-4 ovarian
SK-MEL-2 melanoma = tested on: SK-MEL-2 melanoma
SK-MEL-28 melanoma = tested on: SK-MEL-28 melanoma
SK-OV-3 ovarian = tested on: SK-OV-3 ovarian
SN12C renal = tested on: SN12C renal

SMILES | TGI (A498 renal) [µM] | TGI (ACHN renal) [µM] | TGI (DU-145 prostate) [µM] | TGI (LOX IMVI melanoma) [µM] | TGI (NCI-H522 lung) [µM] | TGI (OVCAR-4 ovarian) [µM] | TGI (SK-MEL-2 melanoma) [µM] | TGI (SK-MEL-28 melanoma) [µM] | TGI (SK-OV-3 ovarian) [µM] | TGI (SN12C renal) [µM] | GI50 (A498 renal) [µM] | GI50 (ACHN renal) [µM] | GI50 (DU-145 prostate) [µM] | GI50 (LOX IMVI melanoma) [µM] | GI50 (NCI-H522 lung) [µM] | GI50 (OVCAR-4 ovarian) [µM] | GI50 (SK-MEL-2 melanoma) [µM] | GI50 (SK-MEL-28 melanoma) [µM] | GI50 (SK-OV-3 ovarian) [µM] | GI50 (SN12C renal) [µM]
CC(C)c1ccccc1S(=O)c1ccccc1C(C)(C)O (centres undefined) | 40.8 | > 100 | > 100 | > 100 | > 100 | > 100 | > 100 | > 100 | > 100 | > 100 | – | – | – | – | – | – | – | – | – | –
Nc1c(C(=O)N/N=C/c2ccc(-c3ccc(Cl)cc3)o2)cnn1-c1ccnc2c(C(F)(F)F)cccc12 | > 100 | > 100 | > 100 | > 100 | > 100 | > 100 | > 100 | > 100 | > 100 | > 100 | > 100 | > 100 | > 100 | > 100 | > 100 | 72.5 | > 100 | > 100 | > 100 | > 100
COc1cc2cn3c4ccc(O)cc4[nH]c(=O)c3c2cc1OC | 10.8 | 1.61 | 1.25 | 1.44 | 0.0263 | 2.11 | 5.36 | 0.681 | 1.95 | 1.98 | 0.02 | 0.0361 | 0.0229 | 0.0131 | < 0.01 | 0.0594 | 0.0398 | < 0.01 | 0.0367 | 0.0435
Nc1nc(Br)nc2c1ncn2C1CC(O)C(CO)O1 (centres undefined) | 99.4 | > 100 | > 100 | > 100 | > 100 | > 100 | > 100 | > 100 | > 100 | > 100 | 21 | 3.7 | 44.3 | 29.8 | 0.698 | > 100 | > 100 | > 100 | > 100 | 0.744
CN1CCc2c(Sc3ccc(C(=O)NO)cc3)c3ccccc3n2C1 | 2.44 | 12.6 | 9.37 | 3.57 | 2.62 | 8.6 | 4.55 | 3.98 | 5.67 | 9.78 | 0.185 | 3.04 | 2.57 | 1.64 | 1.14 | 1.92 | 2.01 | 1.58 | 2.08 | 2.61
NC(N)=N/N=C/c1cc(Cl)cc(Cl)c1O | > 100 | > 100 | > 100 | > 100 | > 100 | > 100 | > 100 | > 100 | > 100 | > 100 | – | – | – | – | – | – | – | – | – | –
O=C(O)c1cc(O)c2c(c1)C(C1c3cc(C(=O)O)cc(O)c3C(=O)c3c(OC4OC(CO)C(O)C(O)C4O)cccc31)c1cccc(OC3OC(CO)C(O)C(O)C3O)c1C2=O (centres undefined) | > 100 | > 100 | > 100 | > 100 | > 100 | > 100 | > 100 | > 100 | > 100 | > 100 | > 100 | > 100 | > 100 | > 100 | > 100 | > 100 | > 100 | > 100 | > 100 | > 100
CCCCCc1c(C)[nH]c(/C=C2\N=C(c3ccc[nH]3)C=C2CC)c1C | 0.267 | 0.189 | 1.19 | – | 0.106 | 0.727 | 0.0257 | 0.144 | 0.383 | 0.226 | < 0.0228 | 0.0225 | < 0.01 | < 0.01 | < 0.01 | < 0.0176 | < 0.01 | 0.0296 | 0.0609 | 0.0169
Cc1c[n+](Cc2ccc3ccccc3c2)cn1Cc1ccc2ccccc2c1 | 4.29 | 19.4 | 9.61 | 2.7 | 3.05 | 2.35 | 3.68 | 3.7 | 6.12 | 3.33 | 0.954 | 5.41 | 2.55 | 1.34 | 1.41 | 0.583 | 1.85 | 1.8 | 2.16 | 1.67
